ChEMBL document CHEMBL3792322, “Metabolic investigation on ZL006 for the discovery of a potent prodrug for the treatment of cerebral ischemia” (Bioorg Med Chem Lett, 2016)
Calls of active or inactive are those of the source. No cut-off for these calls is given here.

Assays:
Brain [1] = assay: Drug uptake in mouse brain at 20 mg/kg, iv measured 15 to 30 mins post dosing by HPLC-MS/MS method; format: ADME, organism-based; conditions: in vivo
Brain [2] = assay: Drug metabolism in mouse brain assessed as ZL006 formation at 20 mg/kg, iv measured 15 to 30 mins post dosing by HPLC-MS/MS method; format: ADME, organism-based; conditions: in vivo
Plasma = assay: Metabolic stability in mouse plasma at 20 mg/kg, iv measured 15 to 30 mins post dosing by HPLC-MS/MS method; format: ADME, organism-based; conditions: in vivo
Mus musculus [3] = assay: Protective activity in BCCAO-induced mouse acute cerebral ischemia model assessed as prolonged surviving time at 4 mg/kg, iv measured 4 hrs post dose; format: functional, organism-based
Rattus norvegicus [4] = assay: Protective activity in MCAO-induced rat focal cerebral ischemia model assessed as reduction in infarct size at 2 mg/kg, iv administered 1 hr post reperfusion measured after 24 hrs by TTC-staining based analysis; format: functional, organism-based
Mus musculus [5] = assay: Protective activity in BCCAO-induced mouse acute cerebral ischemia model assessed as prolonged surviving time at 4 mg/kg, iv measured 1 hr post dose; format: functional, organism-based
Rattus norvegicus [6] = assay: Protective activity in iv dosed MCAO-induced rat focal cerebral ischemia model assessed as reduction in infarct size treated at 1 hr post reperfusion measured after 24 hrs by TTC-staining based analysis; format: functional, organism-based
Rattus norvegicus [7] = assay: Protective activity in MCAO-induced rat focal cerebral ischemia model assessed as reduction in infarct size at 1 mg/kg, iv administered 1 hr post reperfusion measured after 24 hrs by TTC-staining based analysis; format: functional, organism-based

Structure (SMILES)	Drug uptake (Brain [1])	Drug metabolism (Brain [2])	Stability (Plasma)	Activity (Mus musculus [3])	Activity (Rattus norvegicus [4])	Activity (Mus musculus [5])	Activity (Rattus norvegicus [6])	Activity (Rattus norvegicus [7])
CN(Cc1cc(Cl)cc(Cl)c1O)c1ccc(C(=O)O)c(O)c1	Not Active	metabolite_notdetected	–	–	–	–	–	–
O=C(OC1CCCCC1)c1ccc(NCc2cc(Cl)cc(Cl)c2O)cc1O	–	metabolite_detected	Stable	Active	inactive	Active	Dose-dependent effect	Active
COc1cc(NCc2cc(Cl)cc(Cl)c2O)ccc1C(=O)O	Not Active	metabolite_notdetected	Unstable	–	–	–	–	–
COC(=O)c1ccc(NCc2cc(Cl)cc(Cl)c2O)cc1O	–	metabolite_detected	Stable	–	–	Active	–	–
CCOC(=O)c1ccc(NCc2cc(Cl)cc(Cl)c2O)cc1O	–	metabolite_detected	Stable	Active	–	Active	–	–
COc1c(Cl)cc(Cl)cc1CNc1ccc(C(=O)O)c(O)c1	–	metabolite_notdetected	–	–	–	–	–	–
